{
  "source": "patent US5783558A",
  "about": "“Parathormone fragments, their preparation and medicaments containing these” (Boehringer Mannheim GmbH, priority 1992, dated 1998)",
  "key": {"[1]": {"tested_on": "UMR 106 cells", "assay": "DNA synthesis capacity of PTH(3-X) fragments on UMR 106 cells ([3H]-thymidine incorporation)", "type": "cell-based", "description": "DNA synthesis capacity on PTH-(3-X) fragments\nAn increased DNA synthesis capacity on UMR 106 cells was also observed with fragments, the N-terminus of which was shortened by two amino acids. An action maximum was again present when the chain length lay between 34 and 36 amino acids (cf. Tab. 6). This finding is surprising since it is known that a deletion of the amino acids +1 or +1 and +2 leads to the loss of the cAMP induction, combined with the loss of the calcium-mobilising properties of the PTH. An anabolic (mitogenic) activity of N-terminal shortened PTH fragments has hitherto not been described."}, "[2]": {"tested_on": "rats", "assay": "Ca retention (Ca balance) in growing rats", "type": "in vivo, rat", "design": "Ca retention (mg per day) average value: dose or concentration left out as unconfirmed", "conditions": "for Ca retention (mg per day) average value / Ca retention % increase: male CD rats, daily subcutaneous, 10 days; for Ca retention (mg per day) average value: equimolar doses, balance measured during last 3 days; for Ca retention % increase: versus control; for Ca retention in words: rats, compared with hPTH(1-n), n=34, 37, 38", "procedure": "Determination of the action of various PTH fragments on the Ca retention in the case of rats.\nThe measurement of the Ca balance in growing rats is a suitable model to test in vivo the effectiveness of a systemically administered substance on the bone metabolism. In the case of the Ca balance, the Ca flows in and out of the body are measured and the Ca retention (balance) calculated therefrom. It is thereby taken into account that the bones store about 99% of the body calcium, whereas the plasma calcium level remains constant. The amount of calcium retained in the body from the nutrition can, therefore, be regarded as proportional to the growth in the bone mass.\nAs experimental animals for the investigations, there served male CD rats which, at the beginning of the experiment, were 10 weeks old and weighed 250-300 g. The experimental animals were kept individually in commercially-available metabolic cages. An automatic separation of faeces and urine took place in the metabolic cages. Both fractions were collected quantitatively in collection containers and could be analyzed separately from one another.\nAs feed there served a standard diet for rats of meal-like consistency which was pasted with aqua dist. in the ratio of 1:1. The daily provided amount of feed was so adapted to the feed requirement of the animals in the sense of a so-called \"group feedings\" that they were completely eaten by all animals. The daily food ration amounted to 20 g (wet feed). Aqua dist. was offerred to the animals ad libitum.\nAll test substances were injected daily subcutaneously in equimolar doses (corresponding to […] hPTH(1-34)×kg^-1 ×day^-1), over 10 days. Of this, the first 7 days served for the adaptation of the animals, whereas the measurement of the Ca balance took place during the last 3 days.\nThe Ca intake was calculated via the amount of feed taken up and the experimentally determined Ca content of the feed. For this purpose, from the feed batch of each day, an aliquot was dried to constant weight and the water content determined from the comparison of wet and dry weight. Subsequently, 2×500 mg of the dried feed was digested with a laboratory microwave apparatus in conc. acids as follows: To 500 mg of dried feed were successively pipetted 3 ml HNO3 (conc.), 1 ml HCl (conc.) and 1 ml H2 O2 (30%). After the subsidence of the spontaneous oxidation reaction (foaming up), there followed the digestion pressure-controlled in closed digestion containers of Teflon PFA. The pressure/time steps were thereby successively following passed through: 40 psi (276 kpa), 5 min; 80 psi (552 kPa), 5 min; 150 psi ([…]); 10 min. To the cooled digest were then again added 2 ml H 2 O2 (30%) in order to test the completeness of the digestion reaction (no more foaming up).The digest was made up with a 1% lanthanum nitrate solution (v/v in 0.3% HCl) ad 100 ml. For the measurement of the Ca content on a flame atom absorption spectrometer (AAS), the samples were again dilute 1:100 with 1% lanthanum nitrate solution. The Ca intake was then calculated from the taken-up amount of feed and the measured water and Ca content.\nThe Ca loss via the faeces was then determined analogously to the Ca intake: Determination of the water content, acidic digestion in the microwave apparatus under the same conditions and subsequent measurement of the Ca content on the AAS.\nIn the collection container for the urine was placed 2 ml 10% HCl in order to prevent a precipitation of urate. After the end of the experiment, the urine volume was determined by weighing and subsequently an aliquot thereof diluted with 1% lanthanum nitrate solution (v/v in 0.3% HCl) in the ratio of 1:100. The determination of the Ca content of the samples took place on the AAS."}, "[3]": {"tested_on": "sterna organ cultures", "assay": "Mitogeneity on sterna organ cultures", "type": "cell-based", "conditions": "n=4", "procedure": "Mitogeneity on sterna organ cultures\nThe mitogeneity of the new fragments was tested in organ cultures from sterna and it was ascertained that this activity was more strongly marked than in the case of the known fragments hPTH(1-34) and hPTH(1-38)(cf. Tab. 2)."}, "[4]": {"tested_on": "ROS 17/2.8 cells", "assay": "DNA synthesis capacity on ROS 17/2.8 cells ([3H]-thymidine incorporation)", "type": "cell-based", "conditions": "for DNA synthesis E/C / [^3 H]-thymidine incorporation (cpm): hPTH(1-X) 100 nM, ROS/2.8 cells", "procedure": "DNA synthesis capacity on ROS 17/2.8 cells\nThe DNA synthesis capacity was measured on ROS 17/2.8 cells. […] Tab. 3: DNA synthesis hPTH(1-X), 100 nM, ROS/2.8 cells"}, "[5]": {"tested_on": "sterna organ cultures", "assay": "cAMP stimulation on sterna organ cultures", "type": "cell-based", "conditions": "for pMol cAMP: 100 nm inductor, n=4; for Induction of cAMP formation in words: compared with PTH(1-34)", "procedure": "(§1) In organ cultures from sterna, as well as on membrane fractions from pigs' kidneys was measured the induction of the cAMP formation by various PTH peptides. […] This is of importance since the catabolic, i.e. calcium-mobilising properties of PTH are, as is known, involved with an increase of the cAMP (Schluter et al. (1989), J. Biol. Chem. 264, 19:11087-11092; Lowik et al., (1988), Calcif Tissue Int. 43:7-18). These findings are plausible and, therefore, support the above-mentioned findings which show an increase of the anabolic properties of the peptide in the case of a chain length between 35 and 36 amino acids."}, "[6]": {"tested_on": "membrane fractions from pigs' kidneys", "assay": "cAMP stimulation on porcine kidney membrane", "type": "biochemical, pig", "conditions": "for Induction of cAMP formation in words: membrane fractions from pigs' kidneys, compared with PTH(1-34); for pMol cAMP/mg protein ± SEM: porcine kidney membrane, n=3", "procedure": "as §1"}},
  "data": [
    {"substance": "PTH (3-34): PTH fragment, N-terminus shortened by two amino acids, positions 3-34 (SEIQLMHNLGKHLNSMERVEWLRKKLQDVHNF; Parathyroid hormone; UniProt P01270 34-65, looked up, fragment)", "values": [
      {"measurement": "DNA synthesis E/C", "setting": "[1]; PTH(3-X) 100 nM", "value": "1.9 ± 0.12"},
      {"measurement": "[^3 H]-thymidine incorporation (cpm)", "setting": "[1]; PTH(3-X) 100 nM", "value": "1,748 ± 150 cpm"},
      {"measurement": "DNA synthesis E/C", "setting": "[1]; PTH(3-X) 300 nM", "value": "3.6 ± 0.31"},
      {"measurement": "[^3 H]-thymidine incorporation", "setting": "[1]; PTH(3-X) 300 nM", "value": "3,516 ± 297"}
    ]},
    {"substance": "hPTH(1-38): known human parathyroid hormone fragment, amino acids 1-38, state of the art (SVSEIQLMHNLGKHLNSMERVEWLRKKLQDVHNFVALG; Parathyroid hormone; UniProt P01270 32-69, looked up, fragment) [reference compound]", "values": [
      {"measurement": "Ca retention (mg per day) average value", "setting": "[2]", "value": 91.8, "unit": "mg per day"},
      {"measurement": "Ca retention % increase", "setting": "[2]", "value": 85, "unit": "%"},
      {"measurement": "Mitogeneity E/C +/- SEM", "setting": "[3]", "value": "2.96 +/- 0.30"}
    ]},
    {"substance": "hPTH(1-37): known human parathyroid hormone fragment, amino acids 1-37 (WO 91/06564) (SVSEIQLMHNLGKHLNSMERVEWLRKKLQDVHNFVAL; Parathyroid hormone; UniProt P01270 32-68, looked up, fragment) [reference compound]", "values": [
      {"measurement": "DNA synthesis E/C", "setting": "[4]", "value": "3.1 ± 0.38"},
      {"measurement": "[^3 H]-thymidine incorporation (cpm)", "setting": "[4]", "value": "2,021 ± 251 cpm"},
      {"measurement": "Ca retention (mg per day) average value", "setting": "[2]", "value": 96.0, "unit": "mg per day"},
      {"measurement": "Ca retention % increase", "setting": "[2]", "value": 94, "unit": "%"}
    ]},
    {"substance": "Ser-Val-Ser-Glu-Ile-Gln-Leu-Met-His-Asn-Leu-Gly-Lys-His-Leu-Asn-Ser-Met-Glu-Arg-Val-Glu-Trp-Leu-Arg-Lys-Lys-Leu-Gln-Asp-Val-His-Asn-Phe-Val-Ala (SVSEIQLMHNLGKHLNSMERVEWLRKKLQDVHNFVA) [hPTH(1-36)]", "values": [
      {"measurement": "pMol cAMP", "setting": "[5]", "value": 17.6, "unit": "pMol"},
      {"measurement": "Induction of cAMP formation in words", "setting": "[5]", "value": "decreased"},
      {"measurement": "Induction of cAMP formation in words", "setting": "[6]", "value": "decreased"},
      {"measurement": "pMol cAMP/mg protein ± SEM", "setting": "[6]", "value": "44.6 ± 1.8", "unit": "pMol cAMP/mg protein"},
      {"measurement": "DNA synthesis E/C", "setting": "[4]", "value": "3.2 ± 0.37"},
      {"measurement": "[^3 H]-thymidine incorporation (cpm)", "setting": "[4]", "value": "2,136 ± 246 cpm"},
      {"measurement": "Ca retention (mg per day) average value", "setting": "[2]", "value": 110.5, "unit": "mg per day"},
      {"measurement": "Ca retention in words", "setting": "[2]", "value": "higher Ca retention"},
      {"measurement": "Ca retention % increase", "setting": "[2]", "value": 123, "unit": "%"},
      {"measurement": "Mitogeneity E/C +/- SEM", "setting": "[3]", "value": "3.37 +/- 0.58"}
    ]},
    {"substance": "Ser-Val-Ser-Glu-Ile-Gln-Leu-Met-His-Asn-Leu-Gly-Lys-His-Leu-Asn-Ser-Met-Glu-Arg-Val-Glu-Trp-Leu-Arg-Lys-Lys-Leu-Gln-Asp-Val-His-Asn-Phe-Val (SVSEIQLMHNLGKHLNSMERVEWLRKKLQDVHNFV) [hPTH(1-35)]", "values": [
      {"measurement": "pMol cAMP", "setting": "[5]", "value": 18.2, "unit": "pMol"},
      {"measurement": "Induction of cAMP formation in words", "setting": "[5]", "value": "decreased"},
      {"measurement": "Induction of cAMP formation in words", "setting": "[6]", "value": "decreased"},
      {"measurement": "pMol cAMP/mg protein ± SEM", "setting": "[6]", "value": "82.4 ± 0.4", "unit": "pMol cAMP/mg protein"},
      {"measurement": "DNA synthesis capacity in words", "setting": "[4]; ROS 17/2.8 cells, compared with other fragments", "value": "more strongly increased"},
      {"measurement": "DNA synthesis E/C", "setting": "[4]", "value": "4.1 ± 0.43"},
      {"measurement": "[^3 H]-thymidine incorporation (cpm)", "setting": "[4]", "value": "2,686 ± 282 cpm"},
      {"measurement": "Ca retention (mg per day) average value", "setting": "[2]", "value": 108.6, "unit": "mg per day"},
      {"measurement": "Ca retention in words", "setting": "[2]", "value": "higher Ca retention"},
      {"measurement": "Ca retention % increase", "setting": "[2]", "value": 119, "unit": "%"},
      {"measurement": "Mitogeneity E/C +/- SEM", "setting": "[3]", "value": "3.13 +/- 0.57"}
    ]},
    {"substance": "PTH (3-38): PTH fragment, N-terminus shortened by two amino acids, positions 3-38 (SEIQLMHNLGKHLNSMERVEWLRKKLQDVHNFVALG; Parathyroid hormone; UniProt P01270 34-69, looked up, fragment)", "values": [
      {"measurement": "DNA synthesis E/C", "setting": "[1]; PTH(3-X) 100 nM", "value": "2.1 ± 0.13"},
      {"measurement": "[^3 H]-thymidine incorporation (cpm)", "setting": "[1]; PTH(3-X) 100 nM", "value": "1,905 ± 159 cpm"},
      {"measurement": "DNA synthesis E/C", "setting": "[1]; PTH(3-X) 300 nM", "value": "3.8 ± 0.43"},
      {"measurement": "[^3 H]-thymidine incorporation", "setting": "[1]; PTH(3-X) 300 nM", "value": "3,701 ± 414"}
    ]},
    {"substance": "PTH (3-37): PTH fragment, N-terminus shortened by two amino acids, positions 3-37 (SEIQLMHNLGKHLNSMERVEWLRKKLQDVHNFVAL; Parathyroid hormone; UniProt P01270 34-68, looked up, fragment)", "values": [
      {"measurement": "DNA synthesis E/C", "setting": "[1]; PTH(3-X) 100 nM", "value": "2.3 ± 0.06"},
      {"measurement": "[^3 H]-thymidine incorporation (cpm)", "setting": "[1]; PTH(3-X) 100 nM", "value": "2,161 ± 74 cpm"},
      {"measurement": "DNA synthesis E/C", "setting": "[1]; PTH(3-X) 300 nM", "value": "4.1 ± 0.28"},
      {"measurement": "[^3 H]-thymidine incorporation", "setting": "[1]; PTH(3-X) 300 nM", "value": "3,962 ± 268"}
    ]}
  ]
}
